# Results from patent publication US11964988B2, “Fused heterocyclic compounds as RET kinase inhibitors” (ARRAY BIOPHARMA INC., priority 2018, dated 2024).
# Residue numbers refer to the chain shown, from its start.
# Experiments:
# RET kinase V804M = RET kinase V804M (Homo sapiens, UniProt P07949, V804M); assay: RET Enzyme Assay (CisBio HTRF KinEASE-TK), V804M; type: biochemical; settings: read-out: RET V804M Enz FRET IC50
# Description: (§2) The potency of compounds inhibiting several different RET kinase forms (Wild Type, V804M, G810R, & G810S) were determined using CisBio's HTRF® KinEASE™-TK assay technology. […] After a 1 hour incubation at 22° C., the extent of reaction was determined using a PerkinElmer EnVision multimode plate reader via HTRF dual wavelength detection, and the percent of control (POC) was calculated using a ratiometric emission factor. One hundred POC was determined using DMSO only samples (no compound present), and 0 POC was determined using pre-quenched control reactions.
# [1] = target: T1, HEK-293 cells expressing a Kif5b-RET fusion protein (Homo sapiens, UniProt P07949); assay: RET Cell Assay (phospho-RET Tyr1062); type: cell-based; settings: HEK-293 Kif5b-RET, 1 hour incubation, phospho-RET normalized to GAPDH; read-out: KIF5B-RET pTYR1062 Cell IC50
# T1 construct: KIF5B (N-terminal portion incl. coiled-coil); expressed in transfected cells; host or cells: HEK-293; the other entry of the earlier key: KIF5B (P33176, Kinesin-1 heavy chain)
# T1 sequence (P07949 713-1063 limits assumed): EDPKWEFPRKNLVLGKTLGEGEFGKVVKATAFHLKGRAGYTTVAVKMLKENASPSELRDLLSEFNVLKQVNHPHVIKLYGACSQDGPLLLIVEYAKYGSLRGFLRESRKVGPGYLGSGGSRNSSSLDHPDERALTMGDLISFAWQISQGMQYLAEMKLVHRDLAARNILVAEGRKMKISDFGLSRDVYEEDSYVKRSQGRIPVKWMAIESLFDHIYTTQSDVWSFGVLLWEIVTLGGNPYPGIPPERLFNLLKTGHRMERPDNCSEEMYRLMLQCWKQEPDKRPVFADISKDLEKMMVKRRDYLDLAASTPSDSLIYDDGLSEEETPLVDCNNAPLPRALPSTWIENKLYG
# Outline: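 Kif5b-RET HEK-293 cells treated 1 hour with compound in DMEM (0.5% DMSO final), then fixed and immunostained for phospho-RET Tyr1062, normalized to GAPDH by infrared fluorescence. IC50 where the 4-parameter logistic fit of POC crosses 50.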
# [2] = target: T2, HEK-293 cells expressing a G810R mutant RET Kif5b-RET fusion protein (Homo sapiens, UniProt P07949, G810R); assay: RET G810R Mutant Cell Assay (phospho-RET Tyr1062); type: cell-based; settings: HEK-293 Kif5b-RET G810R, 1 hour incubation, phospho-RET normalized to GAPDH
# T2 construct: KIF5B (N-terminal portion incl. coiled-coil); expressed in transfected cells; host or cells: HEK-293; the other entry of the earlier key: KIF5B (P33176, Kinesin-1 heavy chain)
# T2 sequence (P07949 713-1063 G810R limits assumed): T1 sequence (P07949 713-1063 limits assumed) with G98R
# Description: (§1) The cellular potency of compounds inhibiting RET kinase were determined in HEK-293 cells expressing a G810R or G810S mutant RET Kif5b-RET fusion protein. Briefly, HEK-293 cells expressing a G810R or G810S mutant RET Kif5b-RET fusion protein were plated at 50K cells/well in 96 well poly-D-Lysine coated plates the day prior to the assay. The cells were incubated for 1 hour with test compound in DMEM (Dulbecco's Modified Eagle Medium) at a final DMSO concentration of 0.5%. […] After 1 hour the media was removed, the cells were fixed with 3.8% formaldehyde for 20 min, washed with PBS, and permeabilized for 10 min with 100% methanol. The plates were then washed with PBS-0.05% Tween20, and blocked with LI-COR Blocking solution (LI-COR Catalog No. 927-40000) for 1 hour. Plates were washed with PBS-0.05% Tween20, then incubated with anti-phospho-RET (Tyr1062) (Santa Cruz Catalog No. sc-20252-R) antibody and anti-GAPDH (Millipore Catalog No. MAB374) antibody for 2 hours. The plates were washed with PBS-0.05% Tween20, and incubated with anti-rabbit 680 (Molecular Probes Catalog No. A21109) and anti-mouse 800 (LI-COR Catalog No. 926-32210) secondary antibodies for 1 hour. All antibodies were diluted in LI-COR Block containing 0.05% Tween. The plates were washed with PBS-0.05% Tween20,100 μL PBS was added to each well, and the plates were read on a LI-COR Aerius fluorescent plate reader. The phospho-RET signal was normalized to the GAPDH signal. […] The POC values are fit to a 4 parameter logistic curve. The IC50 value is the point where the curve crosses 50 POC.
# [3] = target: T3, HEK-293 cells expressing a G810S mutant RET Kif5b-RET fusion protein (Homo sapiens, UniProt P07949, G810S); assay: RET G810S Mutant Cell Assay (phospho-RET Tyr1062); type: cell-based; settings: HEK-293 Kif5b-RET G810S, 1 hour incubation, phospho-RET normalized to GAPDH
# T3 construct: KIF5B (N-terminal portion incl. coiled-coil); expressed in transfected cells; host or cells: HEK-293
# T3 sequence (P07949 713-1063 G810S limits assumed): T1 sequence (P07949 713-1063 limits assumed) with G98S
# Description: as §1
# RET kinase Wild Type = RET kinase Wild Type (Homo sapiens, UniProt P07949); assay: biochemical;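 also: HTRF kinase activity assay on RET enzyme, 1 h reaction at 22 °C, dual-wavelength readout as percent of control, DMSO-only wells as 100%, pre-quenched reactions as 0%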
# Chain of RET kinase Wild Type (P07949 29-1114): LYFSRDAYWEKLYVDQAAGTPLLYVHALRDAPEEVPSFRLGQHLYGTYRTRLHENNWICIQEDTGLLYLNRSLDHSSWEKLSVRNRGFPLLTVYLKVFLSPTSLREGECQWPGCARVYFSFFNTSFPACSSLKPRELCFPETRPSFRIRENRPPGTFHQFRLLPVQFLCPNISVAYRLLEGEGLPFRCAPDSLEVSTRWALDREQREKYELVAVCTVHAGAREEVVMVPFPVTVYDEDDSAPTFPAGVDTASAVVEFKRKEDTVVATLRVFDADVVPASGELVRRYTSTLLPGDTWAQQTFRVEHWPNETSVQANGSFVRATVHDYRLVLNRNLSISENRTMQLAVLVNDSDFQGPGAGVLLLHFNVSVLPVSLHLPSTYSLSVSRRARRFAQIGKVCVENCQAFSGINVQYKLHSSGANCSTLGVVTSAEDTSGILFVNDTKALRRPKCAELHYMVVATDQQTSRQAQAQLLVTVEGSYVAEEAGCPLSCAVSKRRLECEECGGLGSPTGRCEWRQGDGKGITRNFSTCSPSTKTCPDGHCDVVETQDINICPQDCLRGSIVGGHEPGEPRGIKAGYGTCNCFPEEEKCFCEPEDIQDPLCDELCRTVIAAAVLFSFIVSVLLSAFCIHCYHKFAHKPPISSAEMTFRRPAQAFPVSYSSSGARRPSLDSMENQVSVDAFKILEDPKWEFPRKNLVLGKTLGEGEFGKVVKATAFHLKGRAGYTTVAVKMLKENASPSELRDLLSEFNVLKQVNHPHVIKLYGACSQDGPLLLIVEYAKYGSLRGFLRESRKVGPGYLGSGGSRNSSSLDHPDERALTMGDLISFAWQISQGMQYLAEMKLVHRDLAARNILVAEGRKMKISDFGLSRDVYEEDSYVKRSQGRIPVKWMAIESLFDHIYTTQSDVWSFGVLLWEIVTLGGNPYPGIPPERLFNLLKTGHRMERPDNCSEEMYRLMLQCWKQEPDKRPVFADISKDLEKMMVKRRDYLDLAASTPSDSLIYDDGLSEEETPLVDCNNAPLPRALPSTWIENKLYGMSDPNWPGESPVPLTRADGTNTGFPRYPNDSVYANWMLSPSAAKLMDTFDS
# G810R mutant RET kinase = G810R mutant RET kinase (Homo sapiens, UniProt P07949, G810R); assay: biochemical;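 also: HTRF KinEASE-TK enzymatic assay with 1 nM recombinant RET G810R, 1 h at 22 °C, dual-wavelength ratiometric readout, 100% control without compound, 0% from pre-quenched reactions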
# Chain of G810R mutant RET kinase (P07949 29-1114 G810R): as the sequence (P07949 29-1114) above, with G782R counted along it
# G810S mutant RET kinase = G810S mutant RET kinase (Homo sapiens, UniProt P07949, G810S); assay: biochemical;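 also: HTRF KinEASE-TK kinase assay with recombinant enzyme, 1 h at 22 °C, dual-wavelength ratiometric read-out, percent of control (DMSO-only = 100, pre-quenched reaction = 0)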
# Chain of G810S mutant RET kinase (P07949 29-1114 G810S): as the sequence (P07949 29-1114) above, with G782S counted along it
# Description: as §2
# The potency of a compound inhibiting G810R or G810S mutant RET kinase was determined using CisBio's HTRF® KinEASE™-TK assay technology. The assays contained G810R or G810S mutant RET produced at Array Biopharma, Inc. (1 nM enzyme). […] After a 1-h incubation at 22° C., the extent of reaction was determined using a PerkinElmer EnVision multimode plate reader via HTRF dual wavelength detection, and the percent of control (POC) was calculated using a ratiometric emission factor. One hundred POC was determined using no test compounds, and 0 POC was determined using pre-quenched control reactions.
# Chain of RET kinase V804M (P07949 29-1114 V804M): as the sequence (P07949 29-1114) above, with V776M counted along it
SMILES,IC50 (RET kinase V804M) [nM],IC50 [1] [nM],IC50 [2] [nM],IC50 [3] [nM],IC50 (RET kinase Wild Type) [nM],IC50 (G810R mutant RET kinase) [nM],IC50 (G810S mutant RET kinase) [nM]
"CC(C)n1c2c(c3c(N)ncnc31)-c1noc(C3CC3)c1C(O)CC2 (racemic) [Example 29, 11-amino-3-cyclopropyl-7-isopropyl-4,5,6,7-tetrahydroisoxazolo[4″,3″:6′,7′]cyclohepta[1′,2′:4,5]pyrrolo[2,3-d]pyrimidin-4-ol]",26,12,71,37,8,27,25
"CC(C)n1c2c(c3c(N)ncnc31)-c1noc(C3CC3)c1S(=O)(=O)NC2 [Example 21, 11-amino-3-cyclopropyl-7-isopropyl-6,7-dihydro-5H-isoxazolo[3,4-f]pyrimido[5′,4′:4,5]pyrrolo[2,3-d][1,2]thiazepine 4,4-dioxide 2,2,2-trifluoroacetate]",44,28,87,83,9,31,–
"COC(=O)c1ccc2cc3n(c2c1)C(=O)NCc1c-3c2c(N)ncnc2n1C(C)C [Example 70, Methyl 1-amino-5-isopropyl-8-oxo-5,6,7,8-tetrahydropyrimido[5″,4″:4′,5′]pyrrolo[2′,3′:5,6][1,3]diazepino[1,7-a]indole-11-carboxylate]",–,166,607,388,92,183,312
"CC(C)n1c2c(c3c(N)ncnc31)-c1cc3ccc(C(=O)NC4CC4)cc3n1C(=O)NC2 [Example 72, 1-amino-N-cyclopropyl-5-isopropyl-8-oxo-5,6,7,8-tetrahydropyrimido[5″,4″:4′,5′]pyrrolo[2′,3′:5,6][1,3]diazepino[1,7-a]indole-11-carboxamide]",–,3960,16200,6350,512,3090,2630
"CNC(=O)c1ccc2c(Cl)c3n(c2c1)C(=O)NCc1c-3c2c(N)ncnc2n1C(C)C [Example 74, 1-Amino-14-chloro-5-isopropyl-N-methyl-8-oxo-5,6,7,8-tetrahydropyrimido[5″,4″:4′,5′]pyrrolo[2′,3′:5,6][1,3]diazepino[1,7-a]indole-11-carboxamide]",6000,–,2940,918,353,2080,289
"COC(=O)c1ccc2c(Cl)c3n(c2c1)C(=O)NCc1c-3c2c(N)ncnc2n1C(C)C [Example 75, Methyl 1-amino-14-chloro-5-isopropyl-8-oxo-5,6,7,8-tetrahydropyrimido[5″,4″:4′,5′]pyrrolo[2′,3′:5,6][1,3]diazepino[1,7-a]indole-11-carboxylate]",2030,–,170,191,82,421,51
"CC(C)n1c2c(c3c(N)ncnc31)-c1cc3ccc(C#N)cc3n1C(=O)NC2 [Example 76, 1-amino-5-isopropyl-8-oxo-5,6,7,8-tetrahydropyrimido[5″,4″:4′,5′]pyrrolo[2′,3′:5,6][1,3]diazepino[1,7-a]indole-11-carbonitrile]",–,143,845,570,117,118,292
"CC(C)n1c2c(c3c(N)ncnc31)-c1cc3cc(Cl)ccc3n1C(=O)NC2 [Example 77, 1-amino-12-chloro-5-isopropyl-6,7-dihydropyrimido[5″,4″:4′,5′]pyrrolo[2′,3′: 5,6][1,3]diazepino[1,7-a]indol-8(5H)-one]",–,13,89,32,27,135,73
"CC(C)n1c2c(c3c(N)ncnc31)-c1cc3c(F)cccc3n1C(=O)NC2 [Example 83, 1-amino-13-fluoro-5-isopropyl-6,7-dihydropyrimido[5″,4″:4′,5′]pyrrolo[2′,3′: 5,6][1,3]diazepino[1,7-a]indol-8(5H)-one]",–,293,1060,812,63,58,97
"COCCn1ccc(NC(=O)c2ccc3cc4n(c3c2)CCCc2c-4c3c(N)ncnc3n2C(C)C)n1 [Example 96, 1-amino-5-isopropyl-N-(1-(2-methoxyethyl)-1H-pyrazol-3-yl)-5,6,7,8-tetrahydropyrimido[5″,4″:4′,5′]pyrrolo[3′,2′: 3,4]azepino[1,2-a]indole-11-carboxamide]",–,85,142,116,27,187,393
"CC(C)n1c2c(c3c(N)ncnc31)-c1cc3ccc(C(=O)Nc4ccn(CCC(F)(F)F)n4)cc3n1CCC2 [Example 101, 1-amino-5-isopropyl-N-(1-(3,3,3-trifluoropropyl)-1H-pyrazol-3-yl)-5,6,7,8-tetrahydropyrimido[5″,4″:4′,5′]pyrrolo[3′,2′: 3,4]azepino[1,2-a]indole-11-carboxamide]",–,43,75,62,135,1420,805
"Nc1ncnc2c1c1c(n2-c2ccccc2)CNC(=O)c2c-1noc2C1CC1 [Example 110, 11-amino-3-cyclopropyl-7-phenyl-6,7-dihydroisoxazolo[4,3-c]pyrimido[5′,4′:4,5]pyrrolo[3,2-e]azepin-4(5H)-one 2,2,2-trifluoroacetate]",1740,–,537,201,411,214,284
"CC(=O)Nc1ccc2cc3n(c2c1)CCCc1c-3c2c(N)ncnc2n1C(C)C [Example 139, N-(1-amino-5-isopropyl-5,6,7,8-tetrahydropyrimido[5″,4″:4′,5′]pyrrolo[3′,2′:3,4]azepino[1,2-a]indol-11-yl)acetamide]",–,16,49,36,75,1030,474
